Laboratory results as given in patent US20080293931A1, “Methods and compositions for the removal of nucleic acid amplification inhibitors” (priority 2006, published 2008).
Entries after “also recorded” stand apart in the source; their conditions may differ. Like-named read-outs stand apart in the source and are kept apart here.

Legend:
seeded E. coli DNA = assay: PCR after PIR treatment of soil extracts (dilution to achieve PCR)
E. coli DNA = assay: PCR of seeded E. coli DNA after PIR treatment of aqueous HA samples (decade of dilution necessary for successful PCR); conditions: for Typical dilution decade for PCR / range of dilutions (dilution decade for PCR): aqueous humic samples seeded with E. coli DNA
Description: Consideration of dilution factors for successful PCR must also be reviewed. In untreated soil extracts containing DNA of interest, successful PCR of the extracted DNA may occur when the polymerase inhibitor is diluted sufficiently such that inhibition is suppressed and PCR may occur. Typical values for the dilution decade at which PCR is successful in samples containing humic materials and DNA of interest are often around decade four (1×10^4). Accordingly, a dilution factor of 10,000 would be necessary for successful PCR in a typical soil extract/sample. This magnitude of dilution may also impact PCR sensitivity for DNA/species already present at low concentrations and result in not identifying an organism that was present in the original sample extract.
Using this approach for presenting the HA removal data allows for the determination of a PIR compound's effectiveness for HA removal (ε) and compatibility for application in PCR systems via dilution data for PCR.

[1] = Humic acid (HA) removal from aqueous commercial HA solutions by PIR compounds, fluorimetric HA determination; parameters: key to ε values: ε = −log(1 − efficiency); efficiency = ([HA]i − [HA]f)/[HA]i; conditions: for performance as PIR compound (in words): commercial humic acid solutions; for Average Efficiency, ε / Avg Reduction Factor: aqueous humic samples seeded with E. coli DNA
Description: Humic solutions were in 1×TAE buffer at RT with pH˜7. […] Samples from PIR experiments utilizing these materials were diluted, using 1×TAE, to concentrations falling within the linear response region representative of the humic material used.
In this study, when samples were interrogated for humic acid concentrations via fluorimetry, known concentrations of commercial humic acids were compared to known concentrations of humic standards.
FIG. 1 compares the HA removal from samples containing DNA of interest to the molar concentration of varied PIR compounds by plotting an HA reduction factor as the initial [HA] divided by [HA] following treatment with PIR compounds. The commercially available PIR kit, from Mo-BIO, is placed on FIG. 1 for comparison and was arbitrarily assigned a molar concentration of 1 for convenience. […] The data shown in FIG. 1 were generated from varied initial [HA], ranging from ˜5,000 to 300,000 mg/L HA. These varied initial [HA] values represent a “worst case” scenario and these are in comparison to initial [HA] in extractions from problematic soils generating humic acid concentrations typically less than 5,000 mg/L.
FIG. 2 plots the data from the same experiments represented in FIG. 1, but applying a different approach for data metric. FIG. 2 plots a dimensionless HA removal efficiency (or efficacy) value versus the decade of dilution necessary for successful PCR. The efficiency of HA removal is defined in equation 1 as the initial [HA] minus the final [HA] divided by the initial [HA]. This is essentially a percent removal approach.
Efficiency=[HA]i−[HA]f/[HA]; (1)
To further discriminate efficiency values greater than 0.99, the efficiency was subtracted from the integer value of 1, and the −log was taken of 1-efficiency to generate a non-negative value indicative of HA removal efficiency with greater level of discrimination and resolution of values with high degrees of HA removal. This is described by equation 2.

[2] = Solubility of PIR compounds in aqueous solution; type: physicochemical; conditions: for solubility: aqueous solution
[3] = PIR 1 M, HAi avg 6,500-12,300 depending on compound (Table 6 c2)
[4] = aqueous solutions, read-out: solubility in aqueous solutions (molar solubility)
[5] = starred values of column PIR, M (footnote of Table 6), read-out: maximum molar solubility
[6] = 4.0 M AMG in phosphate buffer, 30 days storage, 4 C., dark, HA avg ~10,000 mg/L
[7] = 4.0 M AMG in phosphate buffer, 30 days storage, 25 C., dark, HA avg ~10,000 mg/L
[8] = 4.0 M AMG in phosphate buffer, 30 days storage, 25 C., light, HA avg ~10,000 mg/L
[9] = 4.0 M AMG in phosphate buffer, 30 days storage, −20 C., dark, HA avg ~10,000 mg/L
[10] = 5.5 M AMG in phosphate buffer, 30 days storage, 4 C., dark, HA avg ~10,000 mg/L
[11] = 5.5 M AMG in phosphate buffer, 30 days storage, 25 C., dark, HA avg ~10,000 mg/L
[12] = 5.5 M AMG in phosphate buffer, 30 days storage, 25 C., light, HA avg ~10,000 mg/L
[13] = 5.5 M AMG in phosphate buffer, 30 days storage, −20 C., dark, HA avg ~10,000 mg/L

Q: Which “dilution decade at which PCR is achieved, on average” value (seeded E. coli DNA; 100 mM PIR, soil extracts (Los Alamos Airport Soil)) does the source give for `Cc1ncc(CO)c(CN)c1O` [PDA, Pyridoxamine] here?
A: 1.0

Q: And the “PCR products following gel electrophoresis (band intensity)” value (seeded E. coli DNA; PIR treated soil samples)?
A: typically weak

Q: And the Decade of dilution (E. coli DNA; 1M PDA in phosphate buffer, 30 days storage, 4 C., dark, HA avg ~10,000 mg/L)?
A: 0

Q: What about the Decade of dilution (E. coli DNA; 1M PDA in phosphate buffer, 30 days storage, 25 C., dark, HA avg ~10,000 mg/L) of the same compound?
A: 0

Q: And the Decade of dilution (E. coli DNA; 1M PDA in phosphate buffer, 30 days storage, 25 C., light, HA avg ~10,000 mg/L)?
A: 0

Q: What about the Decade of dilution (E. coli DNA; 1M PDA in phosphate buffer, 30 days storage, −20 C., dark, HA avg ~10,000 mg/L) of the same compound?
A: 0

Q: What about the Decade of dilution (E. coli DNA; 2.9M PDA in phosphate buffer, 30 days storage, 4 C., dark, HA avg ~10,000 mg/L) of the same compound?
A: 0

Q: What about the Decade of dilution (E. coli DNA; 2.9M PDA in phosphate buffer, 30 days storage, 25 C., dark, HA avg ~10,000 mg/L) of the same compound?
A: 1

Q: What about the Decade of dilution (E. coli DNA; 2.9M PDA in phosphate buffer, 30 days storage, 25 C., light, HA avg ~10,000 mg/L) of the same compound?
A: 1

Q: What about the Decade of dilution (E. coli DNA; 2.9M PDA in phosphate buffer, 30 days storage, −20 C., dark, HA avg ~10,000 mg/L) of the same compound?
A: 0

Q: And the Decade of dilution (E. coli DNA; 2.9M PDA solutions freshly prepared (Day 0))?
A: 0

Q: And the “Typical dilution decade for PCR” value (E. coli DNA; [3])?
A: 1

Q: What about the “range of dilutions (dilution decade for PCR)” value (E. coli DNA; [3]) of the same compound?
A: 0-2

Q: And the “PCR products imaged after gel electrophoresis (band intensity)” value (E. coli DNA; aqueous HA samples seeded with E. coli DNA)?
A: often low and weak

Q: With `Nc1ccc(C(=O)C[n+]2ccsc2)cc1.[Br-]` [PTB-A, 4-Amine-Phenacyl Thiazolium Bromide] as the compound, how does the “performance as PIR compound (in words)” value [1] read?
A: did not perform well; also recorded: poor performance

Q: With `Cc1ncc(C[n+]2csc(CCO[P@](=O)(O)OP(=O)(O)O)c2C)c(N)n1` [THI-PP, thiamine pyrophosphate] as the compound, how does the solubility [2, 4] read?
A: 300 mM

Q: What about the solubility [2, 5] of the same compound?
A: 300 mM

Q: And the “solubility in aqueous solutions (molar solubility)” value ([2]; aqueous solutions)?
A: ~300 mM

Q: What about the “Average Efficiency, ε” value ([1]; PIR 0.3 M, HAi avg 14,000) of the same compound?
A: 2.57

Q: What about the “Avg Reduction Factor” value ([1]; PIR 0.3 M, HAi avg 14,000) of the same compound?
A: 384

Q: And the “performance as PIR compound (in words)” value [1]?
A: did not perform well; also recorded: poor performance

Q: What about the “Typical dilution decade for PCR” value (E. coli DNA; PIR 0.3 M, HAi avg 14,000) of the same compound?
A: 0

Q: And the “range of dilutions (dilution decade for PCR)” value (E. coli DNA; PIR 0.3 M, HAi avg 14,000)?
A: 0-3

Q: For `O=C(C[n+]1ccsc1)c1ccccc1` [PTB, Phenacyl Thiazolium Bromide, reference compound], which solubility [2, 4] is on record?
A: < 1000 mM

Q: What about the solubility [2, 5] of the same compound?
A: 1000 mM

Q: What does the source list for `N=C(N)NN` [AMG, Aminoguanidine, reference compound]?
A: HA reduction factor [1, 6]: 7; ε values [1, 6]: 0.83; HA reduction factor [1, 7]: 6; ε values [1, 7]: 0.81; HA reduction factor [1, 8]: 6; ε values [1, 8]: 0.80; HA reduction factor [1, 9]: 4; ε values [1, 9]: 0.65; ε values ([1]; 4.0M AMG, 30 days storage): less than 1; HA reduction factor [1, 10]: 14; ε values [1, 10]: 1.15; HA reduction factor [1, 11]: 15; ε values [1, 11]: 1.16; HA reduction factor [1, 12]: 19; ε values [1, 12]: 1.13; HA reduction factor [1, 13]: 19; ε values [1, 13]: 1.28; ε values ([1]; 5.5 M AMG, 30 days storage): less than 1.3; Typical HA reduction factors ([1]; AMG 4.0 and 5.5 M, 30 days storage, HA ~10,000 mg/L): less than 20; Average Efficiency, ε ([1]; PIR 4 M, HAi avg 35,000): 0.77; Avg Reduction Factor ([1]; PIR 4 M, HAi avg 35,000): 6; performance as PIR compound (in words) [1]: poor performance; Decade of dilution (E. coli DNA; [6]): 2; Decade of dilution (E. coli DNA; [7]): 2; Decade of dilution (E. coli DNA; [8]): 2; Decade of dilution (E. coli DNA; [9]): 2; Decade of dilution (E. coli DNA; [10]): 2; Decade of dilution (E. coli DNA; [11]): 2; Decade of dilution (E. coli DNA; [12]): 2; Decade of dilution (E. coli DNA; [13]): 2; Typical dilution decade for PCR (E. coli DNA; PIR 4 M, HAi avg 35,000): 4; range of dilutions (dilution decade for PCR) (E. coli DNA; PIR 4 M, HAi avg 35,000): 3-4; dilution required for successful PCR products (E. coli DNA; both 4.0 and 5.5 M AMG): 2 orders of magnitude
